Key:
Female BALB/c mice [1] = assay: Performance evaluation of delivery to lymph nodes of Fluc mRNA lipid nanoparticle (IVIS); type: in vivo; settings: Fluc mRNA LNP; for Expression intensity (lymph nodes): 75 μL IV, 6 hours after injection, IVIS
Method: (§1) Animal preparation: Female BALB/c mice of 6-8 weeks old were selected and raised in an SPF grade breeding room. Animal testing was conducted in strict accordance with the guidelines of national health institutions and animal ethics requirements.
In vivo Delivery: prior to injection of the test LNP formulations, the LNP formulations were gently and repeatedly inverted to thoroughly mix the formulation samples. A corresponding amount of the formulation samples were aspirated with a 1 ml insulin syringe, and the LNP formulations were injected by tail vein injection (IV), with 3 mice per formulation. Each mouse was injected with 75 μL the luciferase mRNA (Fluc mRNA)-encapsulating lipid nanoparticle formulation prepared in Experimental Example 1.
6 hours after injection of LNP formulations, mice were injected with 200 μL D-Luciferin luciferase developing substrate (Catalog No. 122799; Manufacturer: Perkin Elmer). After the substrate was injected, the mice were anesthetized with isoflurane inhalation, and the injection time of luciferase developing substrate was recorded.
The intensity of fluorescence expression induced by the lipid nanoparticle encapsulating luciferase mRNA (Fluc mRNA) with a representative amino lipid compound is shown in Table 6, with SM-102 as a control.

Female BALB/c mice [2] = assay: IFN-γ Elispot cellular immunity test, spleen lymphocytes of mice immunized with IN002.5.1 mRNA LNP; type: in vivo; settings: 50 μL IM, spleen on 7th day after immunization, FIG. 2-4
Method: An IN002.5.1 mRNA-encapsulating lipid nanoparticle formulation was prepared according to the method as described in Experimental Example 1, with replacing the luciferase mRNA (Fluc mRNA) with IN002.5.1 mRNA, with a concentration of IN002.5.1 mRNA of 0.2 g/L, a mass ratio of IN002.5.1 mRNA to Lipid of 1:10, a particle size of 80-130 nm, and an encapsulation efficiency of 90% or higher.
The sequence of IN002.5.1 mRNA is one obtained by replacing all uracil (u) in SEQ ID NO. 1 with N1-methylpseudouridine. Of note is that the t (thymine) in the RNA sequence, SEQ ID NO. 1, in the Sequence Listing is actually u (uracil), according to the WIPO Standard ST. 26 for nucleotide or amino acid sequence listing.
as §1
Immunization of mice: Prior to injection of the test LNP formulations, the LNP formulations were gently and repeatedly inverted to thoroughly mix the formulation samples. A corresponding amount of the formulation samples were aspirated with a 1 ml insulin syringe, and the LNP formulations were injected by intramuscular injection (IM) […], with 8 mice per formulation. Each mouse was injected with 50 μL of the IN002.5.1 mRNA encapsulating lipid nanoparticle formulation.
Spleen acquisition: On the 7th day after immunization, 3 to 4 mice from each LNP immunization group were selected and euthanized, and their spleens were acquired in a super clean bench.
Isolation of lymphocytes: The spleens of mice were taken out in a super clean bench. 7 mL of mouse lymphocyte separation solution was added to a 6-well cell culture plate. Mouse spleen cells were ground with a syringe piston, and the suspension of the spleen cells was filtered through a cell screen and immediately transferred to a 15 mL centrifuge tube. […] RPMI 1640 medium was slowly added with keeping the liquid interface distinct. After centrifugation at 800 g with a horizontal rotor at room temperature for 30 minutes, a clear stratification can be visible. The lymphocyte layer was aspirated, then added with 10 mL RPMI 1640 medium, and inverted for washing. The cells were collected by centrifugation at 250 g for 10 min at room temperature, and the red blood cells were lysed. After completing lysis of red blood cells, the supernatant was poured, and the cells were resuspended in culture medium and counted.
Addition of stimulant and culture of lymphocyte: RPMI-1640 medium containing 10% fetal bovine serum was used to activate the pre-coated plate. After standing at room temperature for at least 30 min, the medium was removed, and a cell suspension at adjusted concentration was added ([…]). The medium used to resuspend the cells was used as a background negative control. 10 μL positive stimulant working solution (PMA+Ionomycin (dissolved in DPBS) was added to a positive control well; […] medium used to resuspend the cells was added to a negative control well; 10 µL/well of a peptide library diluted with RPMI 1640 was added to experimental wells. After all samples and the stimulant were added, the plate was covered, incubated in an incubator with 5% CO2 at 37° C. for 16-24 h.
Elispot detection after culture: The cells and the culture medium in the wells were dumped, and the wells were lysed with 200 μL/well of ice-cold deionized water at 4° C. for 10 min. The liquid in the wells were shaken out, and the wells were washed five times with PBS buffer. The wells were incubated with 100 μL/well of 1 μg/ml detection antibody for 2 h at room temperature; and after washing the plate 5 times with PBS, the wells were incubated with 100 μL/well of 1000-fold diluted enzyme labeled avidin (Streptavidin-HRP) for 1 h at room temperature. […]

Female BALB/c mice [3] = assay: Humoral immunity test for total binding IgG antibody (ELISA, SARS-COV-2 antigen protein) in serum of immunized mice; type: in vivo; settings: IN002.5.1 mRNA LNP, 50 μL IM, serum on 14th day after immunization; FIG. 5-6
[4] = Preparation and characterisation of mRNA-encapsulating lipid nanoparticle (encapsulation efficiency, particle size); type: physicochemical; settings: LNP encapsulating Fluc mRNA; Lipid:DSPC:CHO-HP:M-DMG-2000 48:10:40.5:1.5
Method in brief: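 Fluc mRNA in sodium acetate buffer mixed with ethanolic amino lipid:DSPC:CHO-HP:M-DMG-2000 (48:10:40.5:1.5 molar) by microfluidics, mRNA:lipid mass ratio 1:10, then dialysed 2 h against Tris-8% sucrose and 0.22 μm filtered. Final mRNA 0.2 g/L; particle size and encapsulation efficiency measured.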

Female BALB/c mice [5] = assay: Performance evaluation of in vivo delivery of Fluc mRNA lipid nanoparticle (IVIS, body and organs); settings: Fluc mRNA LNP; for Liver (fluorescence expression intensity) / Spleen (fluorescence expression intensity): 75 μL IV; for Liver (fluorescence expression intensity) / Spleen (fluorescence expression intensity) / Total flux (fluorescence expression intensity) / (Spleen/Total Flux) * 100%: 6 hours after injection; for Liver (fluorescence expression intensity) / Spleen (fluorescence expression intensity) / Total flux (fluorescence expression intensity): IVIS; for Total flux (fluorescence expression intensity): 75 μL tail vein injection (IV); for (Spleen/Total Flux) * 100% / Multiple of spleen delivery/total delivery to amino lipid compound 118: IV; for Multiple of spleen delivery/total delivery to amino lipid compound 118: relative to amino lipid compound 118
Method in brief: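 Female BALB/c mice, 6-8 weeks, received 75 μL Fluc mRNA-LNP by tail-vein injection, 3 mice per formulation. At 6 h, 200 μL D-luciferin was injected, mice were anesthetized with isoflurane, and IVIS bioluminescence was imaged in body and organs.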

Female BALB/c mice [6] = assay: In vivo safety of hEPO mRNA lipid nanoparticle: serum alanine aminotransferase (ALT) enzyme activity; settings: hEPO mRNA LNP, 300 μL IV, serum 12 h after injection; FIG. 1
Method: A human erythropoietin mRNA (hEPO mRNA)-encapsulating lipid nanoparticle formulation was prepared according to the method as described in Experimental Example 1, with replacing the luciferase mRNA (Fluc mRNA) with human erythropoietin mRNA (hEPO mRNA), with a concentration of hEPO mRNA of 0.2 g/L, a mass ratio of hEPO mRNA to Lipid of 1:10, a particle size of 90-130 nm, and an encapsulation efficiency of above 90% or higher.
as §1
In vivo Delivery: Prior to injection of the test LNP formulations, the LNP formulations were gently and repeatedly inverted to thoroughly mix the formulation samples. A corresponding amount of the formulation samples were aspirated with a 1 ml insulin syringe, and the LNP formulations were injected by tail vein injection (IV), with 5 mice per formulation. Each mouse was injected with 300 μL of the human erythropoietin mRNA (hEPO mRNA)-encapsulating lipid nanoparticle formulation.
Serum acquisition: Blood samples of mice were collected 12 h after injection, placed in tubes without anticoagulants, and naturally coagulated at room temperature for 30-60 min, and then centrifuged at a speed of 3500 rpm for 10 min to obtain the supernatant, which was the serum.
The detection of alanine transaminase was carried out according to instructions of the kit (Nanjing Jiancheng Bioengineering Institute, Catalog. No. C009-2-1), and a standard curve was made using the standard provided in the kit. D-PBS was used in the experiment, which was purchased from Sangon Biotech (Shanghai) Co., Ltd., Catalog No. E607009-0600.
The method of detection of enzyme activity of alanine aminotransferase (ALT) in serum of the mice is as follows:
• (1) Enzymatic reaction: 0, 2, 4, 6, 8 and 10 μL of […] sodium pyruvate standard solution were sequentially added to 5 μL of 0.1 mol/L phosphate buffer, and the volume was supplemented to 25 μL with a matrix solution, and repeatedly aspirating and spitting with a pipette for mixing well; • (2) Addition reaction: 20 μL 2,4-dinitrophenylhydrazine solution was added to all reaction wells in (1), mixed by aspirating and spitting, and then placed in an incubator at 37° C. to react for 20 min; • (3) Developing: 200 μL of 0.4 mol/L NaOH solution was added to all reaction wells in (2) to stop the reaction, mixed by aspirating and spitting, and incubated at room temperature for 15 min. The OD value of each well was measured at 510 nm in a microplate reader; and • (4) Data processing of standard curve: The corresponding absolute OD value for each well was obtained by subtracting the OD value for 0 μL well from the measured OD value for each well, the corresponding ALT Karmen units being 0, 28, 57, 97, 150 and 200 U/L, respectively. The standard curve was obtain by taking the absolute OD value as the abscissa and the corresponding Karmen unit as the ordinate.
• (1) Reagent preparation: an ALT matrix solution was placed in an incubator at 37° C. for preheating; • (2) Enzymatic reaction: 5 μL diluted serum was aspirated and added to a 96-well plate, then 20 μL matrix solution was added to the corresponding sample well and mixed by repeatedly aspirating and spitting to avoid bubbling, and then placed in an incubator at 37° C. for 30 min; • (3) Addition reaction: 20 μL 2,4-dinitrophenylhydrazine was added to all reaction wells in (2), mixed by aspirating and spitting, and then reacted in an incubator at 37° C. for 20 min; • (4) Developing: 200 μL of 0.4 mol/L NaOH solution was added to all reaction wells in (3) to stop the reaction, mixed by aspirating and spitting, and then incubated at room temperature for 15 min. […]

Structure (SMILES)	Expression intensity (lymph nodes) (Female BALB/c mice [1])	Delivery effect on lymph nodes compared to SM102 (Female BALB/c mice [1]; IV, statement on Table 6)	Cellular immunity effect (IFN-γ Elispot) compared to ALC0315 (Female BALB/c mice [2])	Humoral immunity effect (IgG titer) compared to ALC0315 (Female BALB/c mice [3])	Encapsulation efficiency [4]	Liver (fluorescence expression intensity) (Female BALB/c mice [5])	Spleen (fluorescence expression intensity) (Female BALB/c mice [5])	Total flux (fluorescence expression intensity) (Female BALB/c mice [5])	(Spleen/Total Flux) * 100% (Female BALB/c mice [5])	Multiple of spleen delivery/total delivery to amino lipid compound 118 (Female BALB/c mice [5])	ALT enzyme activity (Karmen unit) compared to ALC0315 and SM-102 (Female BALB/c mice [6])
CCCCCCC(CCCCCC)OC(=O)CCCCCCCCC(CCCCCCCCC(=O)OC(CCCCCC)CCCCCC)OC(=O)N(CCCCCC(=O)OCC)CCCN(C)C [Compound 250]	1.77E+06	better delivery effect on lymph nodes	–	–	–	–	–	–	–	–	–
CCCCCCCCOC(=O)CN(CCCN(C)C)C(=O)OC(CCCCCCCCC(=O)OC(CCCCCC)CCCCCC)CCCCCCCCC(=O)OC(CCCCCC)CCCCCC [Compound 274]	–	–	better cellular immunity effect	better humoral immunity effect	93.06%	7.08E+07	2.60E+06	3.25E+08	0.80%	2.35	–
CCCCCCC(CCCCCC)OC(=O)CCCCCCCCC(CCCCCCCCC(=O)OC(CCCCCC)CCCCCC)OC(=O)N(CCCN(C)C)CC(=O)OCCCCC [Compound 271]	–	–	better cellular immunity effect	better humoral immunity effect	93.59%	7.57E+07	4.76E+06	2.68E+08	1.78%	5.22	–
CCCCCCOC(=O)CCN(CCCN(C)C)C(=O)OC(CCCCCCCCC(=O)OC(CCCCCC)CCCCCC)CCCCCCCCC(=O)OC(CCCCCC)CCCCCC [Compound 266]	–	–	–	better humoral immunity effect	94.26%	8.09E+07	1.60E+06	2.67E+08	0.60%	1.76	significantly lower ALT enzyme activity
CCCCCCC(CCCCCC)OC(=O)CCCCCCCCC(CCCCCCCCC(=O)OC(CCCCCC)CCCCCC)OC(=O)N(CCCN(C)C)CCC(=O)OCCC [Compound 263]	–	–	better cellular immunity effect	better humoral immunity effect	–	–	–	–	–	–	significantly lower ALT enzyme activity
CCCCCCCCCCCOC(=O)CCCCCN(CCO)CCCCCCCC(=O)OC(CCCCCCCC)CCCCCCCC [SM-102, reference compound]	4.94E+05	–	–	–	–	–	–	–	–	–	–
CCCCCCC(CCCCCC)OC(=O)CCCCCCCCC(CCCCCCCCC(=O)OC(CCCCCC)CCCCCC)OC(=O)N(CCCN(C)C)CCC(=O)OCCCCC [Compound 265]	–	–	better cellular immunity effect	better humoral immunity effect	94.59%	7.57E+07	1.91E+06	3.93E+08	0.49%	1.43	–

Reference: patent US20250250227A1, “AMINO LIPID COMPOUND, PREPARATION METHOD THEREFOR, COMPOSITION THEREOF AND USE THEREOF” (SHENZHEN SHENXIN BIOTECHNOLOGY CO., LTD., priority 2022, published 2025)
